From patent US8198273B2, “Compounds and methods for kinase modulation, and indications therefor” (Plexxikon Inc., priority 2009, dated 2012)

Columns and labels:
[1] = molecular target: CYP2C9 (Homo sapiens, UniProt P11712); experiment: CYP2C9 inhibition (fluorescent substrate); format: in vitro ADME; conditions: CYP2C9, MFC substrate; read-out: Cyp IC50 2C9
Outline: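 10-pt 1:1 serial dilution in co-factor mix (DMSO stock 100 mM); 10 min preincubation, 37 °C; reaction at 37 °C. Readout: fluorescent metabolite of probe substrate. IC50 from signal vs [compound].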

[2] = molecular target: B-Raf (Homo sapiens, UniProt P15056); experiment: B-Raf biochemical kinase inhibition (AlphaScreen, biotin-MEK1 substrate); conditions: 100 μM ATP
Outline: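 Eight-point compound series (made from a 0.1 mM DMSO stock) tested against each Raf enzyme with biotin-MEK1 substrate and 100 μM final ATP.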

[3] = molecular target: CYP3A4(BQ) (Homo sapiens, UniProt P08684); experiment: CYP3A4(BQ) inhibition (fluorescent substrate); format: in vitro ADME; conditions: read-out: Cyp IC50 3A4(BQ)
Outline: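 Compound, from a 100 mM DMSO stock and diluted 1:1 over 10 points in co-factor mix, was incubated at 37° C with enzyme and a known substrate. Decrease in fluorescent product against concentration gave the IC50.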

[4] = Relative solubility by turbidity in aqueous buffers of varying pH; format: physicochemical; conditions: for turbidity threshold (L, M, H) 7.4: HEPES pH 7.4; for turbidity threshold (L, M, H) 4.5: SIF pH 4.5; for turbidity threshold (L, M, H) 6.8: SIF pH 6.8; for turbidity threshold (L, M, H) 1.4: buffer pH 1.4 (SGF)
Outline: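 Turbidity endpoint: concentration where optical density at 490, 535 and 650 nm exceeds 0.01, three-wavelength average used. Buffers at pH 1.5, 4.5, 6.8 and 7.4; DMSO serial dilutions of 25 mM stock spiked 1 μL into 99 μL buffer. Low <31.3, moderate 31.3–250, high >250 μM.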

Chain of CYP3A4(BQ) (P08684 whole entry): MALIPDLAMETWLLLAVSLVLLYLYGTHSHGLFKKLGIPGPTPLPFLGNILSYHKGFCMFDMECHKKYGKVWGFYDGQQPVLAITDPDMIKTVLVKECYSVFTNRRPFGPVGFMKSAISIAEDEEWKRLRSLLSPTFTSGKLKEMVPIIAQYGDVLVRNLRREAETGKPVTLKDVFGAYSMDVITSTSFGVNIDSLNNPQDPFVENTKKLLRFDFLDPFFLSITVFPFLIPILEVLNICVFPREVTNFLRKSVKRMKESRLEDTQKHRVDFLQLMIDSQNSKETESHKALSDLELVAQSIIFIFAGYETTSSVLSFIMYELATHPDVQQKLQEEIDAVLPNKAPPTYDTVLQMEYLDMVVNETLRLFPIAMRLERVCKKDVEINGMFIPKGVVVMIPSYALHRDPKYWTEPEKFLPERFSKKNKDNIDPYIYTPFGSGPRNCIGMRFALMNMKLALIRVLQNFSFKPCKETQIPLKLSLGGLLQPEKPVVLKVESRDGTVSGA
Chain of CYP2C9 (P11712 whole entry): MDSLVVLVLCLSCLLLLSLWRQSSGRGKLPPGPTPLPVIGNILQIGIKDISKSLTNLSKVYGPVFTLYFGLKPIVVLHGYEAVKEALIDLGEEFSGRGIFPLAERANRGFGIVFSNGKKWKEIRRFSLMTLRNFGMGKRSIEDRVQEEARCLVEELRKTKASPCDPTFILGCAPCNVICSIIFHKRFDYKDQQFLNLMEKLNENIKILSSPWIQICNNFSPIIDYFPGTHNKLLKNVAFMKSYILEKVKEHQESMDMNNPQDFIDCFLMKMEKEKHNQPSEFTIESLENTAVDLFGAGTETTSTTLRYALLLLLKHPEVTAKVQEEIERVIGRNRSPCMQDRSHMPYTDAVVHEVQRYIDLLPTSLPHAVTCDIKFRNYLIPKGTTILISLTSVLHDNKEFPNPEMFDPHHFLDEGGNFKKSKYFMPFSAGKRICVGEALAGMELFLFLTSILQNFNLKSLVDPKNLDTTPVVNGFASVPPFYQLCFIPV
Chain of B-Raf (P15056 whole entry): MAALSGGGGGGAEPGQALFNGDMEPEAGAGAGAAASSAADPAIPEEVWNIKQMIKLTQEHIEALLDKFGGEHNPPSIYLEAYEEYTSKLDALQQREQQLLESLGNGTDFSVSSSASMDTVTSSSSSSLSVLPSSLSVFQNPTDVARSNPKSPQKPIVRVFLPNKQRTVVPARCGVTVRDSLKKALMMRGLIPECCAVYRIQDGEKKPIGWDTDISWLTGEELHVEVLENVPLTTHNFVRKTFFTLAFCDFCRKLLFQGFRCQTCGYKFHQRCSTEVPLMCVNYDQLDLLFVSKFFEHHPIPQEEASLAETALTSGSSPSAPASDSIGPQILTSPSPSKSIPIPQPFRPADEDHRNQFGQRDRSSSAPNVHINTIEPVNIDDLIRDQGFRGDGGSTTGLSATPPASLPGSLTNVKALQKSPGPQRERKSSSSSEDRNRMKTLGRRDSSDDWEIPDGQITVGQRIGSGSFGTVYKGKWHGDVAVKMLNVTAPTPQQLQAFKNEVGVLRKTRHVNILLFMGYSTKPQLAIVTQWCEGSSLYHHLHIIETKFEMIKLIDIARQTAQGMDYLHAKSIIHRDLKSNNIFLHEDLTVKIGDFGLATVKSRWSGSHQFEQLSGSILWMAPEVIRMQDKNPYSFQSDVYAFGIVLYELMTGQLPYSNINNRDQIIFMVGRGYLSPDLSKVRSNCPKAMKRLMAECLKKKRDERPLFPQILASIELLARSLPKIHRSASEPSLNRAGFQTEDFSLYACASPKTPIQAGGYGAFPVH

Compound	IC50 [1] [µM]	IC50 [2] [µM]	IC50 [3] [µM]	turbidity threshold (L, M, H) 7.4 [4]	turbidity threshold (L, M, H) 4.5 [4]	turbidity threshold (L, M, H) 6.8 [4]	turbidity threshold (L, M, H) 1.4 [4]
O=C(c1c(F)ccc(NS(=O)(=O)c2cc(F)ccc2F)c1F)c1c[nH]c2nccc(Cl)c12 [P-2018, N-[3-(4-Chloro-1H-pyrrolo[2,3-b]pyridine-3-carbonyl)-2,4-difluoro-phenyl]-2,5-difluoro-benzenesulfonamide]	> 10	< 0.01	> 10	M (moderate solubility if the threshold concentration is 31.3 μM to 250 μM)	M (moderate solubility if the threshold concentration is 31.3 μM to 250 μM)	M (moderate solubility if the threshold concentration is 31.3 μM to 250 μM)	L (low solubility if the threshold concentration is <31.3 04)
O=C(c1c(F)ccc(NS(=O)(=O)c2cccc(F)c2)c1F)c1c[nH]c2nccc(Cl)c12 [P-2019, N-[3-(4-Chloro-1H-pyrrolo[2,3-b]pyridine-3-carbonyl)-2,4-difluoro-phenyl]-3-fluoro-benzenesulfonamide]	> 10	< 0.01	> 10	M (moderate solubility if the threshold concentration is 31.3 μM to 250 μM)	M (moderate solubility if the threshold concentration is 31.3 μM to 250 μM)	M (moderate solubility if the threshold concentration is 31.3 μM to 250 μM)	L (low solubility if the threshold concentration is <31.3 04)
N#Cc1ccnc2[nH]cc(C(=O)c3c(F)ccc(NS(=O)(=O)c4ccccc4F)c3F)c12 [P-2020, N-[3-(4-Cyano-1H-pyrrolo[2,3-b]pyridine-3-carbonyl)-2,4-difluoro-phenyl]-2-fluoro-benzenesulfonamide]	> 10	< 0.01	> 10	M (moderate solubility if the threshold concentration is 31.3 μM to 250 μM)	M (moderate solubility if the threshold concentration is 31.3 μM to 250 μM)	M (moderate solubility if the threshold concentration is 31.3 μM to 250 μM)	M (moderate solubility if the threshold concentration is 31.3 μM to 250 μM)
COc1ccnc2[nH]cc(C(=O)c3c(F)ccc(NS(=O)(=O)c4ccccc4F)c3F)c12 [P-2021, N-[2,4-Difluoro-3-(4-methoxy-1H-pyrrolo[2,3-b]pyridine-3-carbonyl)-phenyl]-2-fluoro-benzenesulfonamide]	> 10	< 0.1	> 10	M (moderate solubility if the threshold concentration is 31.3 μM to 250 μM)	M (moderate solubility if the threshold concentration is 31.3 μM to 250 μM)	M (moderate solubility if the threshold concentration is 31.3 μM to 250 μM)	H (high solubility if the threshold concentration is >250 μM)
COc1ccnc2[nH]cc(C(=O)c3c(F)ccc(NS(=O)(=O)c4cccc(F)c4)c3F)c12 [P-2023, N-[2,4-Difluoro-3-(4-methoxy-1H-pyrrolo[2,3-b]pyridine-3-carbonyl)-phenyl]-3-fluoro-benzenesulfonamide]	5 to 10	< 0.01	< 5	M (moderate solubility if the threshold concentration is 31.3 μM to 250 μM)	M (moderate solubility if the threshold concentration is 31.3 μM to 250 μM)	M (moderate solubility if the threshold concentration is 31.3 μM to 250 μM)	H (high solubility if the threshold concentration is >250 μM)
Cc1cnc2[nH]cc(C(=O)c3c(F)ccc(NS(=O)(=O)c4c(F)cccc4F)c3F)c2c1 [P-2024, N-[2,4-Difluoro-3-(5-methyl-1H-pyrrolo[2,3-b]pyridine-3-carbonyl)-phenyl]-2,6-difluoro-benzenesulfonamide]	> 10	< 0.1	> 10	M (moderate solubility if the threshold concentration is 31.3 μM to 250 μM)	L (low solubility if the threshold concentration is <31.3 04)	M (moderate solubility if the threshold concentration is 31.3 μM to 250 μM)	M (moderate solubility if the threshold concentration is 31.3 μM to 250 μM)
COc1ncc(-c2cnc3[nH]cc(C(=O)c4c(F)ccc(NS(=O)(=O)c5ccccc5F)c4F)c3c2)cn1 [P-2041, N-{2,4-Difluoro-3-[5-(2-methoxy-pyrimidin-5-yl)-1H-pyrrolo[2,3-b]pyridine-3-carbonyl]-phenyl}-2-fluoro-benzenesulfonamide]	> 10	< 0.01	> 10	L (low solubility if the threshold concentration is <31.3 04)	L (low solubility if the threshold concentration is <31.3 04)	L (low solubility if the threshold concentration is <31.3 04)	L (low solubility if the threshold concentration is <31.3 04)
COc1ncc(-c2cnc3[nH]cc(C(=O)c4c(F)ccc(NS(=O)(=O)c5cc(F)ccc5F)c4F)c3c2)cn1 [P-2042, N-{2,4-Difluoro-3-[5-(2-methoxy-pyrimidin-5-yl)-1H-pyrrolo[2,3-b]pyridine-3-carbonyl]-phenyl}-2,5-difluoro-benzenesulfonamide]	5 to 10	< 0.01	> 10	L (low solubility if the threshold concentration is <31.3 04)	L (low solubility if the threshold concentration is <31.3 04)	L (low solubility if the threshold concentration is <31.3 04)	L (low solubility if the threshold concentration is <31.3 04)
COc1ncc(-c2cnc3[nH]cc(C(=O)c4c(F)ccc(NS(=O)(=O)c5c(F)cccc5F)c4F)c3c2)cn1 [P-2043, N-{2,4-Difluoro-3-[5-(2-methoxy-pyrimidin-5-yl)-1H-pyrrolo[2,3-b]pyridine-3-carbonyl]-phenyl}-2,6-difluoro-benzenesulfonamide]	> 10	< 0.01	> 10	M (moderate solubility if the threshold concentration is 31.3 μM to 250 μM)	L (low solubility if the threshold concentration is <31.3 04)	L (low solubility if the threshold concentration is <31.3 04)	L (low solubility if the threshold concentration is <31.3 04)
COc1ncc(-c2cnc3[nH]cc(C(=O)c4c(F)ccc(NS(=O)(=O)c5cccc(F)c5)c4F)c3c2)cn1 [P-2045, N-{2,4-Difluoro-3-[5-(2-methoxy-pyrimidin-5-yl)-1H-pyrrolo[2,3-b]pyridine-3-carbonyl]-phenyl}-3-fluoro-benzenesulfonamide]	> 10	< 0.01	> 10	M (moderate solubility if the threshold concentration is 31.3 μM to 250 μM)	L (low solubility if the threshold concentration is <31.3 04)	L (low solubility if the threshold concentration is <31.3 04)	L (low solubility if the threshold concentration is <31.3 04)
N#Cc1cnc2[nH]cc(C(=O)c3c(F)ccc(NS(=O)(=O)c4ccccc4)c3F)c2c1 [P-2046, N-[3-(5-Cyano-1H-pyrrolo[2,3-b]pyridine-3-carbonyl)-2,4-difluoro-phenyl]-benzenesulfonamide]	< 5	< 0.01	> 10	M (moderate solubility if the threshold concentration is 31.3 μM to 250 μM)	L (low solubility if the threshold concentration is <31.3 04)	M (moderate solubility if the threshold concentration is 31.3 μM to 250 μM)	L (low solubility if the threshold concentration is <31.3 04)
N#Cc1cnc2[nH]cc(C(=O)c3cccc(NS(=O)(=O)c4ccccc4F)c3F)c2c1 [P-2051, N-[3-(5-Cyano-1H-pyrrolo[2,3-b]pyridine-3-carbonyl)-2-fluoro-phenyl]-2-fluoro-benzenesulfonamide]	5 to 10	< 0.1	> 10	M (moderate solubility if the threshold concentration is 31.3 μM to 250 μM)	M (moderate solubility if the threshold concentration is 31.3 μM to 250 μM)	M (moderate solubility if the threshold concentration is 31.3 μM to 250 μM)	M (moderate solubility if the threshold concentration is 31.3 μM to 250 μM)
